Test [1] concerns the target T1, BTK enzyme (Homo sapiens, UniProt Q06187).
T1 construct: purchased Upstate 14-552
The experiment in a line: In vitro BTK kinase assay: BTK-POLYGAT-LS assay. Format: biochemical. The conditions noted are these: ATP 10 μM, read-out: IC50 (10uMATP). In short, it runs like this:
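Human BTK activity was measured with final 10 μM ATP and 100 nM polyGAT substrate in pH 7.5 Tris buffer with 10 mM MgCl2, DTT, Triton X-100 and casein.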

Test [2] concerns the target BTK (phospho-BTK) in human whole blood (Homo sapiens, UniProt Q06187). The experiment in a line: In vitro PD assay in human whole blood (pBTK assay).

T1 sequence (Q06187 whole entry): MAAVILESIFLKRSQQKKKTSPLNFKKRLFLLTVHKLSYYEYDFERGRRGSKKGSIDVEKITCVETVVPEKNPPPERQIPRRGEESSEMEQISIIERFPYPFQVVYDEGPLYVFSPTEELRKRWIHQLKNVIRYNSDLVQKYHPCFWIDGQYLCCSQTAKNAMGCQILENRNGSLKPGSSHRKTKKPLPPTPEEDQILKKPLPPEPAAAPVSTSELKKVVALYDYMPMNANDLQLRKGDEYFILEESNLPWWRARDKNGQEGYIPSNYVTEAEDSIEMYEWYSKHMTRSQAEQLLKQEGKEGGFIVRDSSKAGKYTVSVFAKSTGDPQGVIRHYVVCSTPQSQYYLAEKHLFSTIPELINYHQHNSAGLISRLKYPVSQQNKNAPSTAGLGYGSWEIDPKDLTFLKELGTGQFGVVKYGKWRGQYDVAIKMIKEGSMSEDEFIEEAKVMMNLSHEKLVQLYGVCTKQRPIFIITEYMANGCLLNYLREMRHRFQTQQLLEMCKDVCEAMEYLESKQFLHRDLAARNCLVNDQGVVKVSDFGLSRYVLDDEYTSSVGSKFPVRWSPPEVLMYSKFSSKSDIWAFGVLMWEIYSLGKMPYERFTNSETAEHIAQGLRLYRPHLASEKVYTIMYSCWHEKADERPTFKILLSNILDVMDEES
Sequence of BTK (phospho-BTK) in human whole blood (Q06187 whole entry): as above

Broadly, the IC50 is the concentration at which inhibition is half-maximal. Take `CN1CCn2nc(Nc3cc(-c4ccc(CNC(=O)c5cnn(C(C)(C)C)c5)c(C(F)(F)F)c4)ncn3)cc2C1` [Example I-241, 1-(tert-butyl)-N-(4-(6-((5-methyl-4,5,6,7-tetrahydropyrazolo[1,5-a]pyrazin-2-yl)amino)pyrimidin-4-yl)-2-(trifluoromethyl)benzyl)-1H-pyrazole-4-carboxamide]: the IC50 in test [1] is less than 10 nM; in test [2], less than 500 nM.

Take `[2H]C([2H])([2H])n1cc(Nc2cc(-c3ccc(CNC(=O)N4CC(OC(C)C)C4)c(C)c3)ncn2)cn1` [Example I-243, 3-isopropoxy-N-(2-methyl-4-(6-((1-d3-methyl-1H-pyrazol-4-yl)amino)pyrimidin-4-yl)benzyl)azetidine-1-carboxamide]: the half-maximal inhibitory concentration (IC50) was less than 10 nM in test [1] and less than 500 nM in test [2].

As to `Cc1cc(-c2ccnc(N)n2)ccc1CNC(=O)c1cc2c(s1)CCCC2` [Example I-142, N-(4-(2-aminopyrimidin-4-yl)-2-methylbenzyl)-4,5,6,7-tetrahydrobenzo[b]thiophene-2-carboxamide], the results for the IC50 in test [1] and in test [2] were less than 10 nM and 1500 to 10000 nM, respectively.

For the compound `Cc1cc(-c2ccnc(Nc3cnn(C)c3)n2)ccc1CNC(=O)N1CC[C@@H](C(C)C)C1` [Example I-255, (3S)-3-isopropyl-N-[[2-methyl-4-[2-[(1-methylpyrazol-4-yl)amino]pyrimidin-4-yl]phenyl]methyl]pyrrolidine-1-carboxamide], the IC50 was less than 10 nM in test [1] and less than 500 nM in test [2].

With `CC(C)(C)C1CCN(C(=O)NC2CCCCc3cc(-c4ccnc(Nc5cnn(C6CCOCC6)c5)n4)ccc32)C1` (stereo not shown) [Example I-330, 3-tert-butyl-N-[2-[2-[(1-tetrahydropyran-4-ylpyrazol-4-yl)amino]pyrimidin-4-yl]-6,7,8,9-tetrahydro-5H-benzo[7]annulen-5-yl]pyrrolidine-1-carboxamide], the values for the IC50 in test [1] and in test [2] were less than 10 nM and less than 500 nM, respectively.

Turning to `Cc1cc(-c2ccnc(Nc3cnn(C(C)C)c3)n2)ccc1CNC(=O)c1cnc(C(C)(C)C)s1` [Example I-41, 2-(tert-butyl)-N-(4-(2-((1-isopropyl-1H-pyrazol-4-yl)amino)pyrimidin-4-yl)-2-methylbenzyl)thiazole-5-carboxamide], the figures for the IC50 in test [1] and in test [2] were less than 10 nM and less than 500 nM, respectively.

Turning to `Cc1cc(-c2ccnc(Nc3cnn(CCO)c3)n2)ccc1CNC(=O)N1CC(OC(C)C)C1` [Example I-217, N-(4-(2-((1-(2-hydroxyethyl)-1H-pyrazol-4-yl)amino)pyrimidin-4-yl)-2-methylbenzyl)-3-isopropoxyazetidine-1-carboxamide], the IC50 in test [1] is less than 10 nM; in test [2] it was less than 500 nM.

With `CCn1cc(Nc2nccc(-c3ccc(CNC(=O)N4CC(OC(C)C)C4)c(C)c3)n2)cn1` [Example I-360, N-[[4-[2-[(1-ethylpyrazol-4-yl)amino]pyrimidin-4-yl]-2-methyl-phenyl]methyl]-3-isopropoxy-azetidine-1-carboxamideacid], the IC50 was less than 10 nM in test [1] and less than 500 nM in test [2].

Turning to `COCCn1cc(Nc2nccc(-c3ccc4c(c3)CCCCC4NC(=O)N3CCC(C(C)C)C3)n2)cn1` (stereo not shown) [Example I-183, 3-Isopropyl-N-(2-(2-((1-(2-methoxyethyl)-1H-pyrazol-4-yl)amino)pyrimidin-4-yl)-6,7,8,9-tetrahydro-5H-benzo[7]annulen-5-yl)pyrrolidine-1-carboxamide], the results for the IC50 in test [1] and in test [2] were less than 10 nM and less than 500 nM, respectively.

In the case of `CC(C)OC1CN(C(=O)NC2CCN(C=O)Cc3cc(-c4ccnc(Nc5cnn(C)c5)n4)ccc32)C1` (stereo not shown) [Example I-329, N-[2-formyl-8-[2-[(1-methylpyrazol-4-yl)amino]pyrimidin-4-yl]-1,3,4,5-tetrahydro-2-benzazepin-5-yl]-3-isopropoxy-azetidine-1-carboxamide], the IC50 in test [1] was less than 10 nM; in test [2], less than 500 nM.

On to `Cc1cc(-c2ccnc(Nc3cnn(C)c3)n2)ccc1CNC(=O)N1CCN(C(C)(C)C)CC1` [Example I-23, 4-(tert-butyl)-N-(2-methyl-4-(2-((1-methyl-1H-pyrazol-4-yl)amino)pyrimidin-4-yl)benzyl)piperazine-1-carboxamide], for which the results for the IC50 in test [1] and in test [2] were 100 to 999 nM and 1500 to 10000 nM, respectively.

Turning to `COCCn1cc(Nc2nccc(-c3ccc(CNC(=O)N4CCC(C(C)(C)C)C4)c(C(F)(F)F)c3)n2)cn1` (stereo not shown) [Example I-295, 3-tert-butyl-N-[[4-[2-[[1-(2-methoxyethyl)pyrazol-4-yl]amino]pyrimidin-4-yl]-2-(trifluoromethyl)phenyl]methyl]pyrrolidine-1-carboxamide], the results for the IC50 in test [1] and in test [2] were less than 10 nM and less than 500 nM, respectively.

Consider `Cn1cc(Nc2nccc(-c3ccc4c(c3)CCCCC4NC(=O)N3CC(OC(C)(C)C)C3)n2)cn1` (stereo not shown) [Example I-163, 3-(tert-butoxy)-N-(2-(2-((1-methyl-H-pyrazol-4-yl)amino)pyrimidin-4-yl)-6,7,8,9-tetrahydro-5H-benzo[7]annulen-5-yl)azetidine-1-carboxamide], for which the IC50 in test [1] was less than 10 nM; in test [2], less than 500 nM.

As to `Cc1cc(-c2cc(Nc3cc4n(n3)CCN(C)C4)ncn2)ccc1CNC(=O)N1CC[C@H](C(C)(C)C)C1` [Example I-245, (R)-3-(tert-butyl)-N-(2-methyl-4-(6-((5-methyl-4,5,6,7-tetrahydropyrazolo[1,5-a]pyrazin-2-yl)amino)pyrimidin-4-yl)benzyl)pyrrolidine-1-carboxamide], the IC50 in test [1] was less than 10 nM; in test [2], less than 500 nM.

For the compound `CC(C)(C)OC1CN(C(=O)NC2CCCCc3cc(-c4ccnc(Nc5cnn(C6CCNCC6)c5)n4)ccc32)C1` (stereo not shown) [Example I-343, 3-tert-butoxy-N-[2-[2-[[1-(4-piperidyl)pyrazol-4-yl]amino]pyrimidin-4-yl]-6,7,8,9-tetrahydro-5H-benzo[7]annulen-5-yl]azetidine-1-carboxamide], the IC50 in test [1] is less than 10 nM; in test [2] it was less than 500 nM.

As to `CC(C)C1CCN(C(=O)NC2CCCCc3cc(-c4ccnc(Nc5cnn(CCO)c5)n4)ccc32)C1` (stereo not shown) [Example I-181, N-(2-(2-((1-(2-hydroxyethyl)-1H-pyrazol-4-yl)amino)pyrimidin-4-yl)-6,7,8,9-tetrahydro-5H-benzo[7]annulen-5-yl)-3-isopropylpyrrolidine-1-carboxamide], the values for the IC50 in test [1] and in test [2] were less than 10 nM and less than 500 nM, respectively.

In the case of `Cc1cc(-c2ccnc(Nc3cnn(C)c3)n2)ccc1CN1CCN(CC(C)C)CC1=O` [Example I-249, 4-isobutyl-1-(2-methyl-4-(2-((1-methyl-1H-pyrazol-4-yl)amino)pyrimidin-4-yl)benzyl)piperazin-2-one], the results for the IC50 in test [1] and in test [2] were less than 10 nM and less than 500 nM, respectively.

Consider `Cc1cc(-c2ccnc(Nc3cnn(CCO)c3)n2)ccc1CNC(=O)N1CC(OC(C)(C)C)C1` [Example I-214, 3-(tert-butoxy)-N-(4-(2-((1-(2-hydroxyethyl)-1H-pyrazol-4-yl)amino)pyrimidin-4-yl)-2-methylbenzyl)azetidine-1-carboxamide], for which the IC50 was less than 10 nM in test [1] and less than 500 nM in test [2].

As to `Cc1cc(-c2ccnc(Nc3cnn(C)c3)n2)ccc1CNC(=O)N1CC[C@@H](C(C)(C)C)C1` [Example I-254], the IC50 in test [1] is less than 10 nM; in test [2] it was less than 500 nM.

As to `Cc1cc(-c2ccnc(Nc3cnn(C)c3)n2)ccc1CNC(=O)c1nc2c(s1)CCCC2` [Example I-9, N-(2-methyl-4-(2-((1-methyl-1H-pyrazol-4-yl)amino)pyrimidin-4-yl)benzyl)-4,5,6,7-tetrahydrobenzo[d]thiazole-2-carboxamide], the figures for the IC50 in test [1] and in test [2] were less than 10 nM and 500 to 1500 nM, respectively.

With `Cc1cc(-c2ccnc(Nc3cnn(C)c3)n2)ccc1CNC(=O)c1cc2c(s1)CCCO2` [Example I-15, N-(2-methyl-4-(2-((1-methyl-1H-pyrazol-4-yl)amino)pyrimidin-4-yl)benzyl)-6,7-dihydro-5H-thieno[3,2-b]pyran-2-carboxamide], the IC50 is less than 10 nM in test [1] and less than 500 nM in test [2].

Turning to `Cc1cc(-c2ccnc(Nc3cc4n(n3)CCNC4)n2)ccc1CNC(=O)c1cnc(C(C)(C)C)s1` [Example I-54, 2-(tert-butyl)-N-(2-methyl-4-(2-((4,5,6,7-tetrahydropyrazolo[1,5-a]pyrazin-2-yl)amino)pyrimidin-4-yl)benzyl)thiazole-5-carboxamide], the IC50 is less than 10 nM in test [1] and 500 to 1500 nM in test [2].

As to `CC(C)OC1CN(C(=O)N[C@@H]2CCCCc3cc(-c4ccnc(Nc5cnn(CCO)c5)n4)ccc32)C1` [Example I-169, (R)—N-(2-(2-((1-(2-hydroxyethyl)-1H-pyrazol-4-yl)amino)pyrimidin-4-yl)-6,7,8,9-tetrahydro-5H-benzo[7]annulen-5-yl)-3-isopropoxyazetidine-1-carboxamide], the IC50 in test [1] was less than 10 nM; in test [2], less than 500 nM.

Consider `CCN1CCn2nc(Nc3nccc(-c4ccc(CNC(=O)c5cnc(C(C)(C)C)s5)c(C)c4)n3)cc2C1` [Example I-56, 2-(tert-butyl)-N-(4-(2-((5-ethyl-4,5,6,7-tetrahydropyrazolo[1,5-a]pyrazin-2-yl)amino)pyrimidin-4-yl)-2-methylbenzyl)thiazole-5-carboxamide], for which the 50% inhibitory concentration (IC50) in test [1] is less than 10 nM; in test [2], 500 to 1500 nM.

With `Cc1cc(-c2cc(Nc3cc4n(n3)CCOC4)ncn2)ccc1CNC(=O)c1cnc(C(C)(C)C)s1` [Example I-276, 2-tert-butyl-N-[[4-[6-(6,7-dihydro-4H-pyrazolo[5,1-c][1,4]oxazin-2-ylamino)pyrimidin-4-yl]-2-methyl-phenyl]methyl]thiazole-5-carboxamide], the IC50 was less than 10 nM in test [1] and less than 500 nM in test [2].

For `CC(C)(C)C1CCN(C(=O)NC2CCCCc3cc(-c4ccnc(Nc5cnn(CCO)c5)n4)ccc32)C1` (stereo not shown) [Example I-185, 3-(tert-butyl)-N-(2-(2-((1-(2-hydroxyethyl)-1H-pyrazol-4-yl)amino)pyrimidin-4-yl)-6,7,8,9-tetrahydro-5H-benzo[7]annulen-5-yl)pyrrolidine-1-carboxamide], the results for the IC50 in test [1] and in test [2] were less than 10 nM and less than 500 nM, respectively.

For the origin of these results see US10759783B2, “Biaryl inhibitors of Bruton'S tyrosine kinase” (BIOGEN MA INC., priority 2013, dated 2020).
